The values below come from US5610140A, “Bradykinin receptor antagonists with neurokinin receptor blocking activity” (priority 1994, dated 1997).

pKi: −log10 of the molar value. “Also recorded” adds a separate entry of the source. Read-outs that look alike come from different tables or passages of the source. Square brackets hold non-standard residues; d marks the D form. Peptide text beside a SMILES is read from it. * marks the point of attachment. X5 = C[C@@H](O)[C@H](NC(=O)CCCN1C(=O)CC(*)C1=O)C(=O)N[C@H](Cc1cn(C=O)c2ccccc12)C(=O)N[C@@H](Cc1ccccc1)C(=O)N(C)Cc1ccccc1; Hyp = O=C(O)[C@@H]1C[C@@H](O)CN1 Bounds are passed on as bounds.

The target of series [1] is T1, Neurokinin 1 (NK1) receptor (Cavia porcellus, UniProt P30547). Nature of the series: cell-based.
T1 sequence (P30547 whole entry): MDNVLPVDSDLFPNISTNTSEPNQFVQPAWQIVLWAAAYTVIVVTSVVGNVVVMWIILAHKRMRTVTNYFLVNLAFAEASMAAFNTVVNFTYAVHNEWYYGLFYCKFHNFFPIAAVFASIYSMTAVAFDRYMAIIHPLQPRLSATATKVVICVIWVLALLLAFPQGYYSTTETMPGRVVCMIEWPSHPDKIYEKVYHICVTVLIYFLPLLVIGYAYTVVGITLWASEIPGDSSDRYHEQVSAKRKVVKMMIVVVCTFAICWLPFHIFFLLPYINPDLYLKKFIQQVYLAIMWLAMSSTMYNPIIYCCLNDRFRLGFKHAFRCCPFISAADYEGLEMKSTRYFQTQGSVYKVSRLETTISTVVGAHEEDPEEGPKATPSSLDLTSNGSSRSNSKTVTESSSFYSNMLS
For series [2], the target named is T1, Neurokinin 1 (NK1) receptor. The following applies: for NK1 pA2: agonist substance P-O-methyl ester.
Series [3] can be described thus: In vitro stability in porcine kidney cortical membranes. The following applies: Pig Kidney membrane preparation diluted 1:10 with PBS. Type of series: in vitro ADME. The procedure:
(§1) Plasma samples were prepared by collection of whole blood from healthy male and female human volunteers or guinea pigs. Samples were collected into culture tubes containing sodium heparin, and were then spun at 4° C. at 2000 rpm for ten minutes. Supernatant fractions were removed by aspiration and stored in vials at -20° C. Rat or porcine lung and kidney cortical membranes were prepared using differential centrifugation. Membrane preparations were stored at -20° C. The test compound was diluted to 1 mM concentration in PBS (0.0132 M phosphate, 0.1454 M NaCl, pH 7.2). Ten microliters of this working solution were delivered into a series of Eppendorf tubes, followed by human or guinea pig plasma (90 uL) or PBS as a control blank, and incubated for various time periods. […] Supernatant fractions were removed, filtered through 0.22 uM filters (Millipore) and analyzed by HPLC (C18, 12-80% acetonitrile in water, both containing 0.1% trifluoroacetic acid, monitoring at 214 nm.
(§2) Porcine kidney preparations were diluted 1:10 with PBS; rat kidney preparations were diluted 1:100 with PBS. […] At various time points the reactions were quenched by the addition of 100 uL of ethanol, centrifuged and analyzed by HPLC as described above. The half-life for the disappearance of the HPLC peak was determined using the computer program ENZFIT (Elsevier). […]

A short description of series [4]: In vitro stability in human plasma. It counts as in vitro ADME. How it is done:
as §1, §2

A short description of series [5]: In vitro stability in rat kidney cortical membranes. Type of series: in vitro ADME. Conditions: Rat Kidney membrane preparation diluted 1:100 with PBS. The procedure:
as §1, §2

For series [6], the target named is T2, Bradykinin 2 (BK2) receptor (Rattus norvegicus, UniProt P25023).
T2 sequence (P25023 1-396): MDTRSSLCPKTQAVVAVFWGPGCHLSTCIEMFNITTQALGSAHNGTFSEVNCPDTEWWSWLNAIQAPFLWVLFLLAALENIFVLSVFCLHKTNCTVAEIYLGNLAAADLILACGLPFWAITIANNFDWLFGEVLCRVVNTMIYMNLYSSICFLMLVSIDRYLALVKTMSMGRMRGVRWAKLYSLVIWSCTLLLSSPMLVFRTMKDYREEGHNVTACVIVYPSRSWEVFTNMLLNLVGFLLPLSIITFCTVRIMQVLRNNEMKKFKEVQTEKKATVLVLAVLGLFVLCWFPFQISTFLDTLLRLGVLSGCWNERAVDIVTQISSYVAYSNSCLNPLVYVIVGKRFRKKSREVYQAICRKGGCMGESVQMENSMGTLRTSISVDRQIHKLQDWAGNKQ

The target in series [7] is T2, Bradykinin 2 (BK2) receptor. The experiment in a line: cell-based.
The nature of series [8]: Water solubility. Type of series: physicochemical. Conditions: in the absence of organic co-solvents.
The target in series [9] is NK1 receptors (Homo sapiens, UniProt P25103). The following applies: more potent than FK888; cited from earlier work.
NK1 receptors, sequence (P25103 whole entry): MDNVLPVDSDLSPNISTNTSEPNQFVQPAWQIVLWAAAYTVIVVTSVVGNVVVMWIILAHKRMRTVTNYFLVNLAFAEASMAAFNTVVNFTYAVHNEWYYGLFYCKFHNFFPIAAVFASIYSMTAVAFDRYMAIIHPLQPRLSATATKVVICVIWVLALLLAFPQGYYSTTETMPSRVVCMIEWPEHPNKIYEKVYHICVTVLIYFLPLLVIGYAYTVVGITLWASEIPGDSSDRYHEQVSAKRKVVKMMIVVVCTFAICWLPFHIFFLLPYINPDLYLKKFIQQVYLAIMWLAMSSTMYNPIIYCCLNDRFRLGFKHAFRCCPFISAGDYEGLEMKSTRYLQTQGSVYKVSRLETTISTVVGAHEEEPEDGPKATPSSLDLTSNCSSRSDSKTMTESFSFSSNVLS
For series [10] the following is noted: cited from earlier work.
Series [11] deals with T3, isolated guinea pig lung membrane (Cavia porcellus, UniProt P30547).
T3 construct: host or cells: guinea pig lung membrane
T3 sequence (P30547 whole entry): as the sequence (P30547 whole entry) above
The following applies: read-out: binding constant; cited from earlier work.

For series [12] the following is noted: as reported in the literature; cited from earlier work.
Where [13] appears, read: guinea pig ileum, recovery of agonist response after wash-off.

In [1], `C[C@@H](O)[C@H](NC(=O)CCCN1C(=O)CC(SCCO)C1=O)C(=O)N[C@H](Cc1cn(C=O)c2ccccc12)C(=O)N[C@@H](Cc1ccccc1)C(=O)N(C)Cc1ccccc1` (some centres unmarked) [CP-0529] gave a Kb of 126 nM. In series [2], the “NK1 % recovery (wash-off)” value amounted to 55%.

For the compound `CC(C)C[C@H](NC(=O)[C@@H](Cc1ccccc1)NC(=O)[C@H](CSC1CC(=O)N(CCCCCCN2C(=O)CC(SC[C@H](NC(=O)[C@H](Cc3ccccc3)NC(=O)CNC(=O)[C@@H]3C[C@@H](O)CN3C(=O)[C@@H]3CCCN3C(=O)[C@H](CCCNC(=N)N)NC(=O)[C@H](N)CCCNC(=N)N)C(=O)N[C@H](Cc3ccccc3)C(=O)N[C@@H](CC(C)C)C(=O)N[C@@H](CCCNC(=N)N)C(=O)O)C2=O)C1=O)NC(=O)[C@H](Cc1ccccc1)NC(=O)CNC(=O)[C@@H]1C[C@@H](O)CN1C(=O)[C@@H]1CCCN1C(=O)[C@H](CCCNC(=N)N)NC(=O)[C@H](N)CCCNC(=N)N)C(=O)N[C@@H](CCCNC(=N)N)C(=O)O` (some centres unmarked) [CP-0127] (HELM PEPTIDE1{[dR].R.P.[Hyp].G.F.C.[dF].L.R}|PEPTIDE2{[dR].R.P.[Hyp].G.F.C.[dF].L.R}|CHEM1{[O=C1CC([*:1])C(=O)N1CCCCCCN1C(=O)CC([*:2])C1=O]}$PEPTIDE1,CHEM1,7:R3-1:R1|PEPTIDE2,CHEM1,7:R3-1:R2$$$V2.0), the Half-life is above 360 min in series [3], 165 min in series [4] and 39.6 min in [5].

Consider `CC(C)C[C@H](NC(=O)[C@@H](Cc1ccccc1)NC(=O)[C@H](CSC1CC(=O)N(CCCC(=O)N[C@H](C(=O)N[C@H](Cc2cn(C=O)c3ccccc23)C(=O)N[C@@H](Cc2ccccc2)C(=O)N(C)Cc2ccccc2)[C@@H](C)O)C1=O)NC(=O)[C@H](Cc1ccccc1)NC(=O)CNC(=O)[C@@H]1C[C@@H](O)CN1C(=O)[C@@H]1CCCN1C(=O)[C@H](CCCNC(=N)N)NC(=O)[C@H](N)CCCNC(=N)N)C(=O)N[C@@H](CCCNC(=N)N)C(=O)O` (some centres unmarked) [Compound 2] (H-[dR]RP[Hyp]GFC(X5)[dF]LR-OH), for which the Kb in series [1] is 126 nM; in [7], 6.31 nM. Besides, the “BK2 % Recovery (wash-off)” value in series [6] came out at 20%. In [2], the “NK1 % recovery (wash-off)” value is on record as 48%.

On to `CN(Cc1ccccc1)C(=O)[C@H](Cc1ccc2ccccc2c1)NC(=O)[C@H](CCCCN)NC(=O)c1c[nH]c2ccccc12` [CP-0535], for which the water solubility result in series [8] is recorded as “poor water solubility”. The “NK1 pA2” value in [2] (guinea pig ileum) was 7.5. In addition, the “NK1 % recovery (wash-off)” value in series [2] (setting [13]) came to 41%.

In [1], `C[C@@H](O)[C@H](NC(=O)CCCCCN1C(=O)CC(SCCO)C1=O)C(=O)N[C@H](Cc1cn(C=O)c2ccccc12)C(=O)N[C@@H](Cc1ccccc1)C(=O)N(C)Cc1ccccc1` (some centres unmarked) [CP-0528] showed a Kb of 316 nM. In addition, the “NK1 % recovery (wash-off)” value in series [2] was 80%.

As to `CN(Cc1ccccc1)C(=O)[C@H](Cc1ccccc1)NC(=O)[C@H](CCCCN)NC(=O)c1c[nH]c2ccccc12` [CP-0533], the water solubility result in [8] is listed as “poor solubility in water; also recorded: minimal water solubility”. The “NK1 pA2” value in series [2] (guinea pig ileum) amounted to 6.3. In addition, the “NK1 % recovery (wash-off)” value in [2] (setting [13]) worked out at 73%.

`NC(N)=NCCC[C@H](NC(=O)[C@H](Cc1ccccc1)NC(=O)[C@@H]1CCCN1C(=O)[C@H](CO)NC(=O)[C@H](Cc1ccccc1)NC(=O)CNC(=O)[C@@H]1CCCN1C(=O)[C@@H]1CCCN1C(=O)[C@@H](N)CCCN=C(N)N)C(=O)O` [Bradykinin] (H-RPPGFSPFR-OH): the Half-life in [3] worked out at 3 min; in series [4], 27 min; in series [5], 7.8 min.

Take `COc1ccccc1CN[C@H]1CCCN[C@H]1c1ccccc1` [CP-99994]: in series [9], the “potency relative to FK888 in binding studies” value is 10 times.

Consider `CC(=O)N[C@H](C(=O)N[C@H](Cc1c[nH]c2ccccc12)C(=O)N[C@@H](Cc1ccccc1)C(=O)N(C)Cc1ccccc1)[C@@H](C)O` [FR113680, Ac-Thr-D-Trp-Phe-N(CH3)Bn, reference compound], for which the Kb in series [1] was 100 nM. The “NK1 % recovery (wash-off)” value in series [2] is recorded as 53%. In addition, the in vivo stability result in series [10] is listed as “moderate in vivo stability”. Also, the pKi in [11] is 8.24.

With `CN(Cc1ccccc1)C(=O)[C@H](Cc1ccc2ccccc2c1)NC(=O)[C@@H]1C[C@@H](O)CN1C(=O)c1cn(C)c2ccccc12` [FK888], the water solubility entry in series [12] is listed as “poor water solubility”.
